From patent publication US10457703B2, “Bile acid derivatives as FXR/TGR5 agonists and methods of use thereof” (ENANTA PHARMACEUTICALS, INC., priority 2015, dated 2019) come the findings set out here.

The target in the test is human FXR (NR1H4) (Homo sapiens (Human), UniProt Q96RI1). Kind of test: Human FXR (NR1H4) Assay (Gal4 promoter driven luciferase reporter, Indigo Bioscience kit).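 As to Efficacy (%): 100% equals the efficacy of CDCA; efficacy normalized to CDCA set as 100%.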 The format is cell-based. The conditions noted are these: for EC50: Human FXR (NR1H4) Assay, potency ranges; for Emax: read-out: Efficacy (%). An excerpt:
ASSAYS Human FXR (NR1H4) Assay
Determination of a ligand mediated Gal4 promoter driven transactivation to quantify ligand binding mediated activation of FXR. FXR Reporter Assay kit purchased from Indigo Bioscience (Catalogue number: IB00601) to determine the potency and efficacy of compound developed by Enanta that can induce FXR activation. The principle application of this reporter assay system is to quantify functional activity of human FXR. The assay utilizes non-human mammalian cells, CHO (Chinese hamster ovary) cells engineered to express human NR1H4 protein (referred to as FXR). Reporter cells also incorporate the cDNA encoding beetle luciferase which catalyzes the substrates and yields photon emission. Luminescence intensity of the reaction is quantified using a plate-reading luminometer, Envision. Reporter Cells include the luciferase reporter gene functionally linked to an FXR responsive promoter. Thus, quantifying changes in luciferase expression in the treated reporter cells provides a sensitive surrogate measure of the changes in FXR activity. […] The assay is according to the manufacturer's instructions. In brief, the assay was performed in white, 96 well plates using final volume of 100 uL containing cells with different doses of compounds. Retrieve Reporter Cells from −80° C. storage. Perform a rapid thaw of the frozen cells by transferring a 10 ml volume of 37° C. cell recovery medium into the tube of frozen cells. Recap the tube of Reporter Cells and immediately place it in a 37° C. water bath for 5-10 minutes. Retrieve the tube of Reporter Cell Suspension from the water bath. Sanitize the outside surface of the tube with a 70% alcohol swab, and then transfer it into the cell culture hood. Dispense 90 μl of cell suspension into each well of the 96-well Assay Plate. Transfer the plate into 37° C. incubator, allowing the cells adherent to the bottom of the well. Dilute compounds in Dilution Plate (DP), and administrate to cells at Assay Plate (AP). DMSO content of the samples was kept at 0.2%. Cells were incubated for additional 22 hours before luciferase activities were measured. Thirty minutes before intending to quantify FXR activity, remove Detection Substrate and Detection Buffer from the refrigerator and place them in a low-light area so that they may equilibrate to room temperature. Remove the plate's lid and discard all media contents by ejecting it into an appropriate waste container. Gently tap the inverted plate onto a clean absorbent paper towel to remove residual droplets. Cells will remain tightly adhered to well bottoms. Add 100 μl of luciferase detection reagent to each well of the assay plate. Allow the assay plate to rest at room temperature for at least 5 minutes following the addition of LDR. Set the instrument (Envision) to perform a single 5 second “plate shake” prior to reading the first assay well. Read time may be 0.5 second (500 mSec) per well.
On the technique in general: In a reporter assay the amount or activity of a reporter protein is the signal.

human FXR (NR1H4), sequence (Q96RI1 whole entry, the tested form may be a part): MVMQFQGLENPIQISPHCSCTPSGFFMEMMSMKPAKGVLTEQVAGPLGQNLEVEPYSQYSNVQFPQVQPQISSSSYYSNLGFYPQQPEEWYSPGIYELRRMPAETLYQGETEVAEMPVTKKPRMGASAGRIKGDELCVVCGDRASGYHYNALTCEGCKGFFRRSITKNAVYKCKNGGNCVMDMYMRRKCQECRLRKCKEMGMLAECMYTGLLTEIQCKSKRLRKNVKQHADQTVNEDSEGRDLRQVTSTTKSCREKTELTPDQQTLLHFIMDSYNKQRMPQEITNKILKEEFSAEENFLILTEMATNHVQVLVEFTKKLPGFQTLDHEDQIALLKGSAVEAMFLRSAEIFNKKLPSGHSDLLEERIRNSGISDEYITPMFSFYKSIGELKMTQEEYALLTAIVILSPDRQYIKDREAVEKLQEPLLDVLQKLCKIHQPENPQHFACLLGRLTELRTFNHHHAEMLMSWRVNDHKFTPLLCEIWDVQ

For orientation: EC50 means the midpoint of the concentration-response curve. Turning to `CC[C@H]1[C@@H](O)[C@@H]2[C@H](CC[C@]3(C)[C@@H]([C@H](C)CCOC(=O)N4CCC[C@H](CO)C4)CC[C@@H]23)[C@@]2(C)CC[C@@H](O)C[C@@H]12` [Example 203], the EC50 fell in the range of 100 to 1000 nM and the Emax was 380%.
The matching figures for `CC[C@H]1[C@@H](O)[C@@H]2[C@H](CC[C@]3(C)[C@@H]([C@H](C)CCOC(=O)NS(=O)(=O)c4ccccc4C(F)(F)F)CC[C@@H]23)[C@@]2(C)CC[C@@H](O)C[C@@H]12` [Example 80]: 100 to 1000 nM and 363%.
On to `CC[C@H]1[C@@H](O)[C@@H]2[C@H](CC[C@]3(C)[C@@H]([C@H](C)CCOC(=O)N(C)C)CC[C@@H]23)[C@@]2(C)CC[C@@H](O)C[C@@H]12` [Example 129], for which the concentration giving a half-maximal response (EC50) lay within 100 to 1000 nM and the Emax stood at 323%.
The matching figures for `CC[C@H]1[C@@H](O)[C@@H]2[C@H](CC[C@]3(C)[C@@H]([C@H](C)COC(=O)NS(=O)(=O)c4ccc5ccccc5c4)CC[C@@H]23)[C@@]2(C)CC[C@@H](O)C[C@@H]12` [Example 12]: less than 100 nM and 217%.
In the same order, the values of `CC[C@H]1[C@@H](O)[C@@H]2[C@H](CC[C@]3(C)[C@@H]([C@H](C)CCOC(=O)N4CC[C@@H](CO)C4)CC[C@@H]23)[C@@]2(C)CC[C@@H](O)C[C@@H]12` [Example 212] are less than 100 nM and 479%.
In the same order, the values of `CC[C@H]1[C@@H](O)[C@@H]2[C@H](CC[C@]3(C)[C@@H]([C@H](C)CCOC(=O)NS(=O)(=O)c4ccc(OC(F)(F)F)c(F)c4)CC[C@@H]23)[C@@]2(C)CC[C@@H](O)C[C@@H]12` [Example 104-k] are 100 to 1000 nM and 180%.
As to `CC[C@H]1[C@@H](O)[C@@H]2[C@H](CC[C@]3(C)[C@@H]([C@H](C)COC(=O)NS(=O)(=O)c4ccc(-c5ncco5)cc4)CC[C@@H]23)[C@@]2(C)CC[C@@H](O)C[C@@H]12` [Example 44-p], the EC50 is less than 100 nM and the Emax stood at 218%.
The matching figures for `CC[C@H]1[C@@H](O)[C@@H]2[C@H](CC[C@]3(C)[C@@H]([C@H](C)CCOC(=O)N[C@H](C(=O)OC)C(C)C)CC[C@@H]23)[C@@]2(C)CC[C@@H](O)C[C@@H]12` [Example 154]: 100 to 1000 nM and 138%.
The matching figures for `CC[C@H]1[C@@H](O)[C@@H]2[C@H](CC[C@]3(C)[C@@H]([C@H](C)COC(=O)NS(=O)(=O)c4ccc(-c5ccccc5)cc4)CC[C@@H]23)[C@@]2(C)CC[C@@H](O)C[C@@H]12` [Example 32]: less than 100 nM and 164%.
The matching figures for `CC[C@H]1[C@@H](O)[C@@H]2[C@H](CC[C@]3(C)[C@@H]([C@H](C)CCCOC(=O)N(C)OC)CC[C@@H]23)[C@@]2(C)CC[C@@H](O)C[C@@H]12` [Example 149]: 1000 to 10000 nM and 232%.
Regarding `CC[C@H]1[C@@H](O)[C@@H]2[C@H](CC[C@]3(C)[C@@H]([C@H](C)CCOC(=O)NS(=O)(=O)c4ccc(OC)cc4)CC[C@@H]23)[C@@]2(C)CC[C@@H](O)C[C@@H]12` [Example 52], the EC50 is less than 100 nM and the Emax was found to be 226%.
The matching figures for `CC[C@H]1[C@@H](O)[C@@H]2[C@H](CC[C@]3(C)[C@@H]([C@H](C)CCOC(=O)N4CCC(Cc5ccccc5)CC4)CC[C@@H]23)[C@@]2(C)CC[C@@H](O)C[C@@H]12` [Example 161]: 100 to 1000 nM and 226%.
For the compound `CC[C@H]1[C@@H](O)[C@@H]2[C@H](CC[C@]3(C)[C@@H]([C@H](C)CCOC(=O)NS(=O)(=O)c4cccc(OC)c4)CC[C@@H]23)[C@@]2(C)CC[C@@H](O)C[C@@H]12` [Example 86], the EC50 fell in the range of 100 to 1000 nM and the Emax was 288%.
The matching figures for `CC[C@H]1[C@@H](O)[C@@H]2[C@H](CC[C@]3(C)[C@@H]([C@H](C)CCOC(=O)NCCc4ccc(OC)c(OC)c4)CC[C@@H]23)[C@@]2(C)CC[C@@H](O)C[C@@H]12` [Example 144]: 100 to 1000 nM and 229%.
The matching figures for `CC[C@H]1[C@@H](O)[C@@H]2[C@H](CC[C@]3(C)[C@@H]([C@H](C)CCOC(=O)NS(=O)(=O)c4cccc(F)c4)CC[C@@H]23)[C@@]2(C)CC[C@@H](O)C[C@@H]12` [Example 66]: 100 to 1000 nM and 320%.
On to `CC[C@H]1[C@@H](O)[C@@H]2[C@H](CC[C@]3(C)[C@@H]([C@H](C)CCCOC(=O)NS(=O)(=O)C4CCCCC4)CC[C@@H]23)[C@@]2(C)CC[C@@H](O)C[C@@H]12` [Example 2], for which the EC50 was 100 to 1000 nM and the Emax came out at 247%.
Take `CC[C@H]1[C@@H](O)[C@@H]2[C@H](CC[C@]3(C)[C@@H]([C@H](C)CCOC(=O)NS(=O)(=O)c4cc(C(F)(F)F)cc(C(F)(F)F)c4)CC[C@@H]23)[C@@]2(C)CC[C@@H](O)C[C@@H]12` [Example 104-h]: the EC50 is 1000 to 10000 nM and the Emax was 208%.
In the same order, the values of `CC[C@H]1[C@@H](O)[C@@H]2[C@H](CC[C@]3(C)[C@@H]([C@H](C)COC(=O)NS(=O)(=O)c4ccc(N5CCCCC5=O)cc4)CC[C@@H]23)[C@@]2(C)CC[C@@H](O)C[C@@H]12` [Example 18] are less than 100 nM and 221%.
In the same order, the values of `CC[C@H]1[C@@H](O)[C@@H]2[C@H](CC[C@]3(C)[C@@H]([C@H](C)CCOC(=O)N4CCC(CC)(CO)CC4)CC[C@@H]23)[C@@]2(C)CC[C@@H](O)C[C@@H]12` [Example 217] are less than 100 nM and 337%.
In the case of `CC[C@H]1[C@@H](O)[C@@H]2[C@H](CC[C@]3(C)[C@@H]([C@H](C)COC(=O)NS(=O)(=O)c4ccc(OC(F)(F)F)cc4)CC[C@@H]23)[C@@]2(C)CC[C@@H](O)C[C@@H]12` [Example 6], the EC50 lay within 100 to 1000 nM and the Emax is 298%.
The matching figures for `CC[C@H]1[C@@H](O)[C@@H]2[C@H](CC[C@]3(C)[C@@H]([C@H](C)COC(=O)NS(=O)(=O)c4ccc(-n5ccnn5)cc4)CC[C@@H]23)[C@@]2(C)CC[C@@H](O)C[C@@H]12` [Example 44-g]: less than 100 nM and 209%.
The matching figures for `CC[C@H]1[C@@H](O)[C@@H]2[C@H](CC[C@]3(C)[C@@H]([C@H](C)COC(=O)NS(=O)(=O)c4ccc(-n5ccnn5)nc4)CC[C@@H]23)[C@@]2(C)CC[C@@H](O)C[C@@H]12` [Example 44-n]: 100 to 1000 nM and 307%.
For the compound `CC[C@H]1[C@@H](O)[C@@H]2[C@H](CC[C@]3(C)[C@@H]([C@H](C)CCOC(=O)N4CCCCC4CO)CC[C@@H]23)[C@@]2(C)CC[C@@H](O)C[C@@H]12` (some centres unmarked) [Example 180], the EC50 fell in the range of 100 to 1000 nM and the Emax worked out at 390%.
In the same order, the values of `CC[C@H]1[C@@H](O)[C@@H]2[C@H](CC[C@]3(C)[C@@H]([C@H](C)COC(=O)NS(=O)(=O)c4ccc(N5CCCC5)nc4)CC[C@@H]23)[C@@]2(C)CC[C@@H](O)C[C@@H]12` [Example 44-b] are less than 100 nM and 216%.
`CC[C@H]1[C@@H](O)[C@@H]2[C@H](CC[C@]3(C)[C@@H]([C@H](C)CCOC(=O)N4CCCCS4(=O)=O)CC[C@@H]23)[C@@]2(C)CC[C@@H](O)C[C@@H]12` [Example 104-e]: the EC50 is 100 to 1000 nM and the Emax amounted to 239%.
In the same order, the values of `CC[C@H]1[C@@H](O)[C@@H]2[C@H](CC[C@]3(C)[C@@H]([C@H](C)CCOC(=O)NS(=O)(=O)CCOC)CC[C@@H]23)[C@@]2(C)CC[C@@H](O)C[C@@H]12` [Example 83] are 100 to 1000 nM and 275%.
In the same order, the values of `CC[C@H]1[C@@H](O)[C@@H]2[C@H](CC[C@]3(C)[C@@H]([C@H](C)CCOC(=O)N4CC[C@@H](O)C4)CC[C@@H]23)[C@@]2(C)CC[C@@H](O)C[C@@H]12` [Example 215] are less than 100 nM and 143%.
The matching figures for `CC[C@H]1[C@@H](O)[C@@H]2[C@H](CC[C@]3(C)[C@@H]([C@H](C)CCOC(=O)NCCO)CC[C@@H]23)[C@@]2(C)CC[C@@H](O)C[C@@H]12` [Example 153]: 100 to 1000 nM and 230%.
